Earlier results on two compounds are cited in publication PMC9014845 (Clinical cancer research : an official journal of the …, 2019).

Data set [1] deals with patients with FGFR alterations. As to conditions: cited from earlier work.
Data set [2] relates to patients with FGFR alterations. As to conditions: 23 patients with FGFR alterations; cited from earlier work.

Consider `CCN1CCN(c2ccc(Nc3cc(N(C)C(=O)Nc4c(Cl)c(OC)cc(OC)c4Cl)ncn3)cc2)CC1` [BGJ398], for which, in data set [1], the “Overall DCR” value is recorded as 37%. With `COc1cc(OC)cc(N(CCNC(C)C)c2ccc3ncc(-c4cnn(C)c4)nc3c2)c1` [JNJ-42756493], the “Patients with stable disease for >3 months” value in data set [2] is recorded as 8 patients.
